Measured values from patent US8063071B2 (GlaxoSmithKline, LLC, priority 2007, dated 2011).
pIC50: −log10 of the molar value. Structures can show the parent of a compound that is named as a salt.

Assays:
[1] = test system: human monocyte stimulated cytokine production (TNF-α); experiment: Monocyte assay (LPS-stimulated TNF-α production); format: cell-based; conditions: for pIC50: 24 h, 200 ng/mL LPS, TNF-α by ELISA
Summary of the method: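 Human CD14+ monocytes were purified from blood and plated at 1×10^6 cells/mL in RPMI 1640 with 10% FBS. Compound was added 30 min before stimulation with 200 ng/mL LPS (0.1% DMSO final), followed by 24 hrs at 37 C. Supernatant TNF-α was measured by ELISA, and viability by trypan blue exclusion.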

[2] = molecular target: T1, Recombinant human IKKβ (residues 1-737) (Homo sapiens, UniProt O14920); experiment: IKK2 assay (TR-FRET); format: biochemical; conditions: ATP 1 μM final, read-out: pIC50 against IKK2 (converted)
T1 construct: Recombinant human IKKβ (residues 1-737); GST (C); made in house
T1 sequence (O14920 1-737): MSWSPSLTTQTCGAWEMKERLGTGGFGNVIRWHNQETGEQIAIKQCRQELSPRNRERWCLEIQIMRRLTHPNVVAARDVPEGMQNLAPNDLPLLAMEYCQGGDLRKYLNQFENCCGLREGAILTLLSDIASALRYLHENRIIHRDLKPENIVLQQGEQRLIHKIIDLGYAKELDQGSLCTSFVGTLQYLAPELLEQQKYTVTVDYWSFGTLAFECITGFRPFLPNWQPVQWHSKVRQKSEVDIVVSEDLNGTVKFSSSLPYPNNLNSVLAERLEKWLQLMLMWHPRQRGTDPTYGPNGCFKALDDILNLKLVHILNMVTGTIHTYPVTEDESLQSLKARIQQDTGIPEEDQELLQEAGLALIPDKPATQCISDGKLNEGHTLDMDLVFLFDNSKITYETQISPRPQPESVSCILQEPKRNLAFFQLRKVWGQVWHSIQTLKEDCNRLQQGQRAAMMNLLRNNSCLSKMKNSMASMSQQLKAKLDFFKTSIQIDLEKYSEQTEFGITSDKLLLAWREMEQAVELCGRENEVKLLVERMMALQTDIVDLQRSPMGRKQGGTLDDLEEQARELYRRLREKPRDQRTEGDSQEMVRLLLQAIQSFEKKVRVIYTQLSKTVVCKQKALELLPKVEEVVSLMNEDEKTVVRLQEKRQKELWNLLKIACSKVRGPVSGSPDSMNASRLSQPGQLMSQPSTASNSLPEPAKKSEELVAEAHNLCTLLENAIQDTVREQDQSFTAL
Summary of the method: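 Baculovirus-expressed C-terminal GST-tagged IKKβ (0.5-5 nM final) in HEPES pH 7.4, MgCl2, CHAPS, DTT, BSA with 1.7% DMSO; 25 nM GST-IB substrate and 1 μM ATP, 15 min at room temperature. EDTA stop; phospho-Ser32/36 detected by Eu-antibody/APC-anti-GST TR-FRET, 665/620 nm ratio.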

Row | Structure (SMILES) | pIC50 [1] | IC50 [2] [µM] | inhibition at 0.3 µM ([1]; read-out: inhibition at 300 nM in the monocyte assay) [%]
1 | CCS(=O)(=O)N1CCC(c2c[nH]c3c(C(N)=O)cc(-c4csc(CN(C)C5CCC5)c4)cc23)CC1 [Example 404, 5-(5-{[cyclobutyl(methyl)amino]methyl}-3-thienyl)-3-[1-(ethylsulfonyl)-4-piperidinyl]-1H-indole-7-carboxamide trifluoroacetate] | ≥ 5.82 | ≤ 10 | 
2 | CCCC(C)NCc1ccc(-c2cc(C(N)=O)c3[nH]cc(C4CCN(S(=O)(=O)CC)CC4)c3c2)s1 (stereo not shown) [Example 186, 3-[1-(ethylsulfonyl)-4-piperidinyl]-5-(5-{[(1-methylbutyl)amino]methyl}-2-thienyl)-1H-indole-7-carboxamide] |  | ≤ 10 | 0 to 60
3 | CCS(=O)(=O)N1CCC(c2c[nH]c3c(C(N)=O)cc(-c4cc(F)cc(CN[C@@H](C)C(C)C)c4)cc23)CC1 [Example 314, 5-[3-({[(1S)-1,2-dimethylpropyl]amino}methyl)-5-fluorophenyl]-3-[1-(ethylsulfonyl)-4-piperidinyl]-1H-indole-7-carboxamide] | ≥ 5.82 | ≤ 10 | 
4 | CCS(=O)(=O)N1CCC(c2c[nH]c3c(C(N)=O)cc(-c4csc(CN5CCC[C@@H]5COC)c4)cc23)CC1 [Example 124, 3-[1-(ethylsulfonyl)-4-piperidinyl]-5-[5-({(2R)-2-[(methyloxy)methyl]-1-pyrrolidinyl}methyl)-3-thienyl]-1H-indole-7-carboxamide trifluoroacetate] | ≥ 5.82 | ≤ 10 | 
5 | CCC1CCCN1Cc1cc(-c2cc(C(N)=O)c3[nH]cc(C4CCN(S(=O)(=O)CC)CC4)c3c2)cs1 (stereo not shown) [Example 92, 5-{5-[(2-ethyl-1-pyrrolidinyl)methyl]-3-thienyl}-3-[1-(ethylsulfonyl)-4-piperidinyl]-1H-indole-7-carboxamide] | ≥ 5.82 | ≤ 10 | 
6 | CCS(=O)(=O)N1CCC(c2c[nH]c3c(C(N)=O)cc(-c4csc(CNCC5CC5)c4)cc23)CC1 [Example 115, 5-(5-{[(cyclopropylmethyl)amino]methyl}-3-thienyl)-3-[1-(ethylsulfonyl)-4-piperidinyl]-1H-indole-7-carboxamide trifluoroacetate] | ≥ 5.82 | ≤ 10 | 
7 | CCS(=O)(=O)N1CCC(c2c[nH]c3c(C(N)=O)cc(-c4csc(CN(C)C5CCCCC5)c4)cc23)CC1 [Example 96, 5-(5-{[cyclohexyl(methyl)amino]methyl}-3-thienyl)-3-[1-(ethylsulfonyl)-4-piperidinyl]-1H-indole-7-carboxamide] | ≥ 5.82 | ≤ 10 | 
8 | CCS(=O)(=O)N1CCC(c2c[nH]c3c(C(N)=O)cc(-c4cccc(CNS(=O)(=O)c5ccc(Br)cc5)c4)cc23)CC1 [Example 371, 5-[3-({[(4-bromophenyl)sulfonyl]amino}methyl)phenyl]-3-[1-(ethylsulfonyl)-4-piperidinyl]-1H-indole-7-carboxamide] | ≥ 5.82 | ≤ 10 | 
9 | CCS(=O)(=O)N1CCC(c2c[nH]c3c(C(N)=O)cc(-c4ncc(CN5CCCC5)s4)cc23)CC1 [Example 249, 3-[1-(ethylsulfonyl)-4-piperidinyl]-5-[5-(1-pyrrolidinylmethyl)-1,3-thiazol-2-yl]-1H-indole-7-carboxamide trifluoroacetate] | < 6.00 | ≤ 10 | 
10 | CCS(=O)(=O)N1CCC(c2c[nH]c3c(C(N)=O)cc(-c4csc(CNC)c4)cc23)CC1 [Example 230, 3-[1-(ethylsulfonyl)-4-piperidinyl]-5-{5-[(methylamino)methyl]-3-thienyl}-1H-indole-7-carboxamide trifluoroacetate] | ≥ 5.82 | ≤ 10 | 
11 | CCS(=O)(=O)N1CCC(c2c[nH]c3c(C(N)=O)cc(-c4csc(CN(C)C)c4)cc23)CC1 [Example 111, 5-{5-[(dimethylamino)methyl]-3-thienyl}-3-[1-(ethylsulfonyl)-4-piperidinyl]-1H-indole-7-carboxamide trifluoroacetate] | ≥ 5.82 | ≤ 10 | 
